{"source": "patent US7037656B2", "about": "“Methods and compositions for identifying ligands for nuclear receptors” (priority 2000, dated 2006)", "assay_in_all_cases": "Yeast 6x EcRE-lacZ β-galactosidase transactivation assay", "format_in_all_cases": "cell-based", "key": {"[1]": {"biological_target": "T1, Dm EcR-B1 (Drosophila melanogaster, UniProt P34021)", "T1 construct": "ubiquitin (human, 76 aa) (N, cleaved yes); expressed in transfected cells", "T1 sequence (P34021 whole entry)": "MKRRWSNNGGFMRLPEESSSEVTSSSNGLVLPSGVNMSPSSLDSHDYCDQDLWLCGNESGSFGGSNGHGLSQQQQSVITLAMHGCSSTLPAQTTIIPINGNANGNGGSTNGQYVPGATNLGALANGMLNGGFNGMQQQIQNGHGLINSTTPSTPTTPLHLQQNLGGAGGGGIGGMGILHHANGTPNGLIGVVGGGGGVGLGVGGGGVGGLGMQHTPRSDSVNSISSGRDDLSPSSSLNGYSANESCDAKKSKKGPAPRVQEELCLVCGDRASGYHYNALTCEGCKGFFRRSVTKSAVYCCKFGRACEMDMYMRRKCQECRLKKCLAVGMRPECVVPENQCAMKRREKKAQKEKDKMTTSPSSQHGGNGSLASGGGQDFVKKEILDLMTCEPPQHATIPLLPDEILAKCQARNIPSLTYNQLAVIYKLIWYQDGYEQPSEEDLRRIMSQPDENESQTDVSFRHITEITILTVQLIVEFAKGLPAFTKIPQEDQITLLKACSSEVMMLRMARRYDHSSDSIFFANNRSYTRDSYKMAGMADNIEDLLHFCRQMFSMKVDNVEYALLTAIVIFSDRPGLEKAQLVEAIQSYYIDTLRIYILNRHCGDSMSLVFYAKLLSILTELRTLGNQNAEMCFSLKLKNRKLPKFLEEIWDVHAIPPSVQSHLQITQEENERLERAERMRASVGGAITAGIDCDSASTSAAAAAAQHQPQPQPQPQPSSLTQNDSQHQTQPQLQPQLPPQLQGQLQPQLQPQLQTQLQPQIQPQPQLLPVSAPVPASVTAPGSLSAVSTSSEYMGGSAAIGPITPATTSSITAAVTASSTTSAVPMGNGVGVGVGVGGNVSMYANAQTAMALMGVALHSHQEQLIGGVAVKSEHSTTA", "conditions": "RH 5992 10 μM, 4 hours, DMSO control 1.090", "experimental": "(§1) Briefly, yeast cells are cultured in 5 mL of YPD liquid medium overnight at 30° C. The cell culture was diluted 1:20 in YPD media and further grown until cell density reached an O.D of 0.6. at OD600. The cells were pelleted by centrifugation and washed with 10 mL of TE+0.1M lithium acetate. Cells are then resuspended in 10 mL TE+0.1M lithium acetate and incubated at 30° C. for 1 hour. Cells are collected and resuspended in 0.5 mL of TE+ 0.1M lithium acetate. Aliquots of cells (50 μL), were incubated for 15 minutes at 30° C. with 1–2 μg plasmid DNA in the presence of 5 μg of denatured salmon sperm DNA as DNA carrier. In the case of co-transformation, the indicated plasmids were added simultaneously. 50% polyethyleneglycol of molecular weight 4000, diluted in TE, was added to a final concentration of 35%. DMSO was added to the transformation solution simultaneously to a final concentration 3%. The samples were mixed well by vortexing and incubated for an additional 30 minutes at 30° C. The cell mixture is then heated for 15 minutes at 42° C. Cells were then collected and plated onto appropriate yeast selective media. Transformants of 4 plasmids are selected on the complete media without tryptophan, uracil, leucine and histidine.\n(§2) The yeast cells grown overnight in selective liquid media at 30° C. were diluted in prewarmed liquid selective media to 0.1 at OD600 (ODculture). 100 μl of the cell culture was spiked to each well of a.96-well microtiter plate. Ligand (2 μl diluted in DMSO) was added to each well giving a final concentration of DMSO of 2%. As a control, 2 μl of DMSO were also added to additional test wells. The final concentration of the tested compounds in the media is 10 μM. The cells were incubated in the presence of ligand in a shaker at 30° C. After 4 hours of incubation, 100 μl of 2× “Z” Sarcosine-ONPG buffer (120 mM Na2HPO4, 80 mM NaH2PO4, 20 mM KCl, 2 mM MgSO4, 100 mM beta-mercaptoethanol (Sigma), pH 7.0, 0.4% lauroyl sarcosine (Sigma), 4 mg/mL ONPG (Diagnostic Chemicals limited) was added to each well and the plate was further incubated at 37° C. The 2× “Z” Sarcosine-ONPG buffer is freshly prepared or stored at −20° C. prior to use. After incubation at 37° C. for 1 hour. The reaction was stopped by adding 100 μL of quenching solution 0.5 M Na2CO3 and OD405 (ODreaction) and beta-galactosidase activity was measured in a micro plate reader (Biotek) at a wave length of 405–450 nanometers. The effect of copper on enhancement of the transactivation response mediated by the ligands tested was studied by adding CuSO4 to the media to a final concentration of 10 μM.\n(§3) Using the transformation method set forth above, yeast were co-transformed with a reporter gene as shown in FIG. 2 and the expression vector encoding the full-length D. melanogaster ecdysone receptor, DmEcR (FIG. 3A) in the presence or absence of the Dm EcR heterodimer partner, DmUSP (FIG. 4A). Transformed cells were incubated with DMSO alone as a control or with a proprietary ecdysone receptor ligand (Rohm & Haas compound RH5992—tebufenozide) at final concentration 10 μM for 4 hours. The samples were then assayed for β-galactosidase activity as described above. […] As the N-terminal portion of the Dm EcR receptor is reported to play a role in ligand independent transactivation, an expression vector containing an N-terminal deletion in the EcR was constructed (see FIG. 3B) and assessed in the β-galactosidase assays described above. […] Restoration of ligand dependent transactivation was observed only when the DmΔN EcR, DmUSP and co-activator GRIP1 were coexpressed. See Table I. The data obtained indicate that the efficiency of ligand-dependent transactivation of the ecdysone receptor requires both heterodimer formation between EcR and USP, and proper interaction with co-activator GRIP1. […]"}, "[2]": {"biological_target": "T2, Dm ΔN EcR + Dm ΔA/B USP + GRIP1 (Drosophila melanogaster, UniProt P34021)", "T2 construct": "ubiquitin (human, 76 aa) (N, cleaved yes); expressed in transfected cells", "T2 sequence (P34021 221-878, stated change not applied)": "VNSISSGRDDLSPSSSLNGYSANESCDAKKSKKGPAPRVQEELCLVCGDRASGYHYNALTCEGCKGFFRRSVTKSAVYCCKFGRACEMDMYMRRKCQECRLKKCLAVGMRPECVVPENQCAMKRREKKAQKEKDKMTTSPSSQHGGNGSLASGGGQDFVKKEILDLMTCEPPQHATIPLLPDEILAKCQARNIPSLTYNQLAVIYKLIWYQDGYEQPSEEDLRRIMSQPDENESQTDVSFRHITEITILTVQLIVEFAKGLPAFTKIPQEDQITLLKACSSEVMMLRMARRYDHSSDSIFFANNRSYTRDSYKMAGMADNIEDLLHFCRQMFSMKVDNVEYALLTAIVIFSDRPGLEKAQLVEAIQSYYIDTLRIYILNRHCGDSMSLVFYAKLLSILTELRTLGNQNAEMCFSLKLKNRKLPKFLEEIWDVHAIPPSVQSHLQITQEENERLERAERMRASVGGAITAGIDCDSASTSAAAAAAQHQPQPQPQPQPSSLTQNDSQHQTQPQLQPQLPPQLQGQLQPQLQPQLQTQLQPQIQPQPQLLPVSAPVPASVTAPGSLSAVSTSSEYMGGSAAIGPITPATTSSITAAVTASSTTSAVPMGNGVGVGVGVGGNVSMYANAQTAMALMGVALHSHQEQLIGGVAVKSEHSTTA", "T2 sequence (P20153 with tags, fused parts or gaps partner)": "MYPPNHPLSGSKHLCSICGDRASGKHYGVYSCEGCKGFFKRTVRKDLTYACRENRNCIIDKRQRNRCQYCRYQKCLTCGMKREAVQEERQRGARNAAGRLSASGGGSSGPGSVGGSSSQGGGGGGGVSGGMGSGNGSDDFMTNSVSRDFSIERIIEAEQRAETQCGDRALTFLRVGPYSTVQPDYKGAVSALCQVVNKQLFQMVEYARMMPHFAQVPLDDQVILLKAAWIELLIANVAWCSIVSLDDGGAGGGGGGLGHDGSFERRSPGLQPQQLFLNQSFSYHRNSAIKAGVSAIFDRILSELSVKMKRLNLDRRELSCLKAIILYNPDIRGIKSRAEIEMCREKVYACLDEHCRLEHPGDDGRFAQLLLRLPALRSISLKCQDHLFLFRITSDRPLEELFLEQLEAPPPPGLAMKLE", "conditions": "RH 5992 10 μM, 4 hours, DMSO control 0.340", "experimental": "as §1, §2, §3"}, "[3]": {"biological_target": "T3, Dm ΔN EcR + DmUSP + GRIP1 (Drosophila melanogaster, UniProt P34021)", "T3 construct": "ubiquitin (human, 76 aa) (N, cleaved yes); expressed in transfected cells", "T3 sequence (P34021 221-878 limits assumed, stated change not applied)": "as the sequence (P34021 221-878, stated change not applied) above", "T3 sequence (P20153 whole entry partner)": "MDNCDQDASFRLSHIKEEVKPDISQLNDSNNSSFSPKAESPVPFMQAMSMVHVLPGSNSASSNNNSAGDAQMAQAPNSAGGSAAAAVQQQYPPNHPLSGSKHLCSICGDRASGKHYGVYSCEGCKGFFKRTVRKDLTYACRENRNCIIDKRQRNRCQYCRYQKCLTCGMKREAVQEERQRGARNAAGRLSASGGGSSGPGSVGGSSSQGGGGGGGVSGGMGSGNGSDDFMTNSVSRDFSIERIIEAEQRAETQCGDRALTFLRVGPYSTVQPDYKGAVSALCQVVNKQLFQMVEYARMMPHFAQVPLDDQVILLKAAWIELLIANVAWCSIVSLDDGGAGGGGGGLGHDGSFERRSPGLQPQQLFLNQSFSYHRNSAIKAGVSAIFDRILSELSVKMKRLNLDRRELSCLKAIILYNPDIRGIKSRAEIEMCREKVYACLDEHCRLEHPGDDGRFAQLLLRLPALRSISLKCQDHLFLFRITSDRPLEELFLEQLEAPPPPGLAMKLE", "T3 sequence (Q61026 322-1121 partner limits assumed)": "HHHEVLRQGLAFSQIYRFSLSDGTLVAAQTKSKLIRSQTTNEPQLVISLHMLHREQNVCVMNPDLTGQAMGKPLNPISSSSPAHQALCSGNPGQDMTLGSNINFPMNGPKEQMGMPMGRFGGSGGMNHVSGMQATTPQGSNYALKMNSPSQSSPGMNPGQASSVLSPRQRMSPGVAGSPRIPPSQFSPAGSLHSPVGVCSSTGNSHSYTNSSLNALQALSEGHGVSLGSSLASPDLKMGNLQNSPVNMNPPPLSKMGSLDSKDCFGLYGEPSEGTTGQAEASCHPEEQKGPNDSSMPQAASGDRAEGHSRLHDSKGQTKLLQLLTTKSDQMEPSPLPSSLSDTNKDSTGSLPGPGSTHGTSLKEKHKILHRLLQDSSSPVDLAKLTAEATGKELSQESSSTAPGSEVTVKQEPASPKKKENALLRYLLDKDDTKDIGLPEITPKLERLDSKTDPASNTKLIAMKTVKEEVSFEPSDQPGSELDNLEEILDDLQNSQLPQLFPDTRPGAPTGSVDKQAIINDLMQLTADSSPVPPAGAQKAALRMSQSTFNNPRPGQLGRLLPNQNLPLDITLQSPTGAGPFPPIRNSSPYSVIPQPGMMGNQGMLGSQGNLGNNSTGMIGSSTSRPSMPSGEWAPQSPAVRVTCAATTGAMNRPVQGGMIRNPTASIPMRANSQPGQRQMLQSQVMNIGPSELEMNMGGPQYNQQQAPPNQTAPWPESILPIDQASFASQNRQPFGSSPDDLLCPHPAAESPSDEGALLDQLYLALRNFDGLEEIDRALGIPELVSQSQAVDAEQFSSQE", "conditions": "RH 5992 10 μM, 4 hours, DMSO control 0.424", "experimental": "as §1, §2, §3"}, "[4]": {"biological_target": "T4, Cf ΔA/B EcR + Cf ΔA/B USP + GRIP1 (Choristoneura fumiferana, UniProt O77240)", "T4 construct": "human ubiquitin (76 aa) (N, cleaved yes); expressed in transfected cells; host or cells: yeast (Saccharomyces cerevisiae)", "T4 sequence (O77240 entry or part of it, stated change not applied)": "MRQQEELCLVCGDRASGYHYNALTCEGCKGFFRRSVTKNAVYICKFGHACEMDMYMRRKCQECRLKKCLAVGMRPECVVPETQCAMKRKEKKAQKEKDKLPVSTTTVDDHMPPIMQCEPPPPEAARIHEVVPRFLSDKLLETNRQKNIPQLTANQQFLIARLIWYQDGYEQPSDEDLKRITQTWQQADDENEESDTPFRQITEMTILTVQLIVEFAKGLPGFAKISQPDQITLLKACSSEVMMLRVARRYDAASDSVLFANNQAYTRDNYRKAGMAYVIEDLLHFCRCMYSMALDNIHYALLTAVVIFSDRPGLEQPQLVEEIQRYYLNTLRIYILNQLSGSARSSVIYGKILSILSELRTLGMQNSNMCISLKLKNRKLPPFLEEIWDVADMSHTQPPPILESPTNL", "T4 sequence (O76202 with tags, fused parts or gaps partner)": "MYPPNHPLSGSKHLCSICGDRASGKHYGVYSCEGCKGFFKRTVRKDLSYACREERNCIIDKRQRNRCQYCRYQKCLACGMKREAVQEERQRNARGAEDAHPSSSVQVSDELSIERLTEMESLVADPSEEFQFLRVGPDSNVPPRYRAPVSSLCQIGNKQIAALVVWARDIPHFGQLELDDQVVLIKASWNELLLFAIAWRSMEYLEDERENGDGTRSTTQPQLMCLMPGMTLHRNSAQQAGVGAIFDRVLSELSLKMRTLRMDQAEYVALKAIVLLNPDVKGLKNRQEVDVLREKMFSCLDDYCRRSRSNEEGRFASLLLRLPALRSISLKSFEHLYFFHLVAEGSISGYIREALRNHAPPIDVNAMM", "conditions": "RH 5992 10 μM, 4 hours, DMSO control 0.200", "experimental": "as §1\nThe yeast cells grown overnight in selective liquid media at 30° C. were diluted in prewarmed liquid selective media to 0.1 at OD600 (ODculture). […]"}}, "note": "Several values for one entry are separate records, joined by “and”; a condition that tells them apart may be missing. Equal entries are not always repeated."}
{"smiles": "CCc1ccc(C(=O)NN(C(=O)c2cc(C)cc(C)c2)C(C)(C)C)cc1", "note": "[RH 5992, tebufenozide]", "values": [{"measurement": "β-galactosidase activity", "setting": "[1]", "result": 1.200}, {"measurement": "β-galactosidase activity", "setting": "[2]", "result": 2.323}, {"measurement": "β-galactosidase activity", "setting": "[3]", "result": 2.537}, {"measurement": "β-galactosidase activity", "setting": "[4]", "result": "2.500 and 3.000"}]}
